Measurements published in article PMC5752149 (European journal of medicinal chemistry, 2017).

Experiments:
EphA2 receptor [1] = biological target: T1, EphA2 receptor (Homo sapiens, UniProt P29317); assay: EphA2 phosphorylation and internalization in MDA-MB-231 cells; type: cell-based
EphA2 receptor [2] = biological target: T1, EphA2 receptor; assay: EphA2 phosphorylation in EphA2-overexpressing MDA-MB-231 cells; type: cell-based

T1 sequence (P29317 24-976): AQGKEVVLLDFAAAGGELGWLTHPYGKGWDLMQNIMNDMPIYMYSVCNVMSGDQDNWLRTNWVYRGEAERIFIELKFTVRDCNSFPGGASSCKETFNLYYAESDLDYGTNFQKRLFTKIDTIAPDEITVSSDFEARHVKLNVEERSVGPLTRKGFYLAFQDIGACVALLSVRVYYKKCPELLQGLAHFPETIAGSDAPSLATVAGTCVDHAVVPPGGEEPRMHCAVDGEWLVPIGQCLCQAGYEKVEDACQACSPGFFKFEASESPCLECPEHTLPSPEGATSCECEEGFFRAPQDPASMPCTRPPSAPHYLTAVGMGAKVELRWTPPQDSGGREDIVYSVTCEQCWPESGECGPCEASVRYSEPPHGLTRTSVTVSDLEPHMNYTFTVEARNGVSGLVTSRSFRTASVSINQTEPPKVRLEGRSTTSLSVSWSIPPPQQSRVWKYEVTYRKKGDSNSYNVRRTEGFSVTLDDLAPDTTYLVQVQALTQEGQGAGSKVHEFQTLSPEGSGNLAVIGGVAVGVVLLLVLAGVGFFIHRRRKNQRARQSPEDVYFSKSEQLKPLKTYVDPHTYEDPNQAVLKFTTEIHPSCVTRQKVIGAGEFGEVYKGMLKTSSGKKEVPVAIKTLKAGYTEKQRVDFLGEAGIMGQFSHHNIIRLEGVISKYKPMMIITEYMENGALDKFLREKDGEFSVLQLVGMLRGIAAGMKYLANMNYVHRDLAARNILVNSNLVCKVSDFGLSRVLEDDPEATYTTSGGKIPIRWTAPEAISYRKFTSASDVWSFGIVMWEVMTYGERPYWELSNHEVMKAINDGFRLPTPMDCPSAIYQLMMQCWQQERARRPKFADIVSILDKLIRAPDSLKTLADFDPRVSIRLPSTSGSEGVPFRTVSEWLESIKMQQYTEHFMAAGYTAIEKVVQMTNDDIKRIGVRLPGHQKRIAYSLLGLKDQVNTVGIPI

SMILES | EphA2 phosphorylation and internalization in MDA-MB-231 cells (positive control, (EphA2 receptor [1]) | EphA2 phosphorylation in EphA2-overexpressing MDA-MB-231 cells; receptor interna (EphA2 receptor [2])
COc1cc2nc(N3CCN(C(=O)C4COc5ccccc5O4)CC3)nc(N)c2cc1OC (centres unmarked) [Doxazosin, 2-[4-(2,3-Dihydro-1,4-benzodioxine-2-carbonyl)piperazin-1-yl]-6,7-dimethoxyquinazolin-4-amine] | ~ 50 μM | 
COc1cc2nc(N3CCN(C(=O)CCCCCCCCCCC(=O)N4CCN(c5nc(N)c6cc(OC)c(OC)cc6n5)CC4)CC3)nc(N)c2cc1OC [compound 27, 1,12-bis(4-(4-amino-6,7-dimethoxyquinazolin-2-yl)piperazin-1-yl)dodecane-1,12-dione] |  | ~ 0.4 μM
